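Briefly, cells in 96-well plates were exposed to five compound concentrations for 48 h, and endpoints were estimated by linear interpolation. TGI denotes the concentration required for complete inhibition of growth.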
What was measured:
Test in all cases: inhibition of tumour cell growth, NCI panel, 48 h
HT29 colon = tested on: HT29 colon
HCT-15 colon = tested on: HCT-15 colon
HCT-116 colon = tested on: HCT-116 colon
SR leukemia = tested on: SR leukemia
HL-60(TB) leukemia = tested on: HL-60(TB) leukemia
NCI-H460 lung = tested on: NCI-H460 lung
IGROV1 ovarian = tested on: IGROV1 ovarian
SNB-75 CNS = tested on: SNB-75 CNS
SF-268 CNS = tested on: SF-268 CNS
NCI-H23 lung = tested on: NCI-H23 lung
U251 CNS = tested on: U251 CNS
NCI-H522 lung = tested on: NCI-H522 lung
SF-539 CNS = tested on: SF-539 CNS
NCI-H226 lung = tested on: NCI-H226 lung
OVCAR-8 ovarian = tested on: OVCAR-8 ovarian
SN12C renal = tested on: SN12C renal
LXFL 529 NSCLC = tested on: LXFL 529 NSCLC
DMS 273 small cell lung = tested on: DMS 273 small cell lung
UACC-62 melanoma = tested on: UACC-62 melanoma
KM20L2 colon = tested on: KM20L2 colon
HCC-2998 colon = tested on: HCC-2998 colon
OVCAR-3 ovarian = tested on: OVCAR-3 ovarian
M19-MEL melanoma = tested on: M19-MEL melanoma
SK-MEL-28 melanoma = tested on: SK-MEL-28 melanoma
DMS 114 small cell lung = tested on: DMS 114 small cell lung
XF 498 CNS = tested on: XF 498 CNS
SK-MEL-2 melanoma = tested on: SK-MEL-2 melanoma
COLO 205 colon = tested on: COLO 205 colon
SNB-19 CNS = tested on: SNB-19 CNS
EKVX NSCLC = tested on: EKVX NSCLC
CCRF-CEM leukemia = tested on: CCRF-CEM leukemia
ACHN renal = tested on: ACHN renal
TK-10 renal = tested on: TK-10 renal
HOP-62 NSCLC = tested on: HOP-62 NSCLC
M14 melanoma = tested on: M14 melanoma
SK-MEL-5 melanoma = tested on: SK-MEL-5 melanoma
OVCAR-5 ovarian = tested on: OVCAR-5 ovarian
RPMI-8226 leukemia = tested on: RPMI-8226 leukemia
A549 NSCLC = tested on: A549 NSCLC
RXF 393 renal = tested on: RXF 393 renal
SW-620 colon = tested on: SW-620 colon
786-0 renal = tested on: 786-0 renal
UO-31 renal = tested on: UO-31 renal
LOX IMVI melanoma = tested on: LOX IMVI melanoma
MALME-3M melanoma = tested on: MALME-3M melanoma
MOLT-4 leukemia = tested on: MOLT-4 leukemia
KM12 colon = tested on: KM12 colon
SF-295 CNS = tested on: SF-295 CNS
OVCAR-4 ovarian = tested on: OVCAR-4 ovarian
K-562 leukemia = tested on: K-562 leukemia

CN(CCN(C)C(=O)CCn1cc(F)c(=O)[nH]c1=O)C(=O)CCn1cc(F)c(=O)[nH]c1=O
TGI (HT29 colon): > 100 µM
TGI (HCT-15 colon): > 100 µM
TGI (HCT-116 colon): > 100 µM
TGI (SR leukemia): > 100 µM
TGI (HL-60(TB) leukemia): > 100 µM
TGI (NCI-H460 lung): > 100 µM
TGI (IGROV1 ovarian): > 100 µM
TGI (SNB-75 CNS): > 100 µM
TGI (SF-268 CNS): > 100 µM
TGI (NCI-H23 lung): > 100 µM
TGI (U251 CNS): > 100 µM
TGI (NCI-H522 lung): 12.5 µM
TGI (SF-539 CNS): > 100 µM
TGI (NCI-H226 lung): > 100 µM
TGI (OVCAR-8 ovarian): > 100 µM
TGI (SN12C renal): > 100 µM
TGI (LXFL 529 NSCLC): > 100 µM
TGI (DMS 273 small cell lung): > 100 µM
TGI (UACC-62 melanoma): > 100 µM
TGI (KM20L2 colon): > 100 µM
TGI (HCC-2998 colon): > 100 µM
TGI (OVCAR-3 ovarian): > 100 µM
TGI (M19-MEL melanoma): > 100 µM
TGI (SK-MEL-28 melanoma): > 100 µM
TGI (DMS 114 small cell lung): > 100 µM
TGI (XF 498 CNS): > 100 µM
TGI (SK-MEL-2 melanoma): > 100 µM
TGI (COLO 205 colon): > 100 µM
TGI (SNB-19 CNS): > 100 µM
TGI (EKVX NSCLC): > 100 µM
TGI (CCRF-CEM leukemia): > 100 µM
TGI (ACHN renal): > 100 µM
TGI (TK-10 renal): > 100 µM
TGI (HOP-62 NSCLC): > 100 µM
TGI (M14 melanoma): > 100 µM
TGI (SK-MEL-5 melanoma): > 100 µM
TGI (OVCAR-5 ovarian): > 100 µM
TGI (RPMI-8226 leukemia): > 100 µM
TGI (A549 NSCLC): > 100 µM
TGI (RXF 393 renal): > 100 µM
TGI (SW-620 colon): > 100 µM
TGI (786-0 renal): > 100 µM
TGI (UO-31 renal): > 100 µM
TGI (LOX IMVI melanoma): > 100 µM
TGI (MALME-3M melanoma): > 100 µM
TGI (MOLT-4 leukemia): > 100 µM
TGI (KM12 colon): > 100 µM
TGI (SF-295 CNS): > 100 µM
TGI (OVCAR-4 ovarian): > 100 µM
TGI (K-562 leukemia): > 100 µM
